Reference: EP0183129A1, “Quinolonecarboxylic acid derivatives” (KYORIN PHARMACEUTICAL CO., LTD., priority 1984, dated 1986)
Values after ≈ are worked out from the molar mass of the structure shown.

Experiments:
S. faecalis 49 = assay: In vitro antibacterial activity, MIC (clinical isolates); type: cell-based; conditions: Enterococcus faecalis; S. faecalis 49; 10^6 cells/ml; clinical isolate; read-out: MIC
[1] = system: Bacteroides fragilis GM 7000; assay: In vitro antibacterial activity, MIC (standard strain); type: cell-based; conditions: GM7000; Bacteroides fragilis GM 7000; 10^6 cells/ml; standard strain; read-out: MIC
[2] = system: Pseudomonas aeruginosa V-1; assay: as above; type: cell-based; conditions: V1; Pseudomonas aeruginosa V-1; 10^6 cells/ml; standard strain; read-out: MIC
S. pneumoniae 2054 = assay: In vitro antibacterial activity, MIC (clinical isolates); type: cell-based; conditions: Streptococcus pneumoniae; S. pneumoniae 2054; 10^6 cells/ml; clinical isolate; read-out: MIC
S. pyogenes 3130 = assay: as above; type: cell-based; conditions: Streptococcus pyogenes, read-out: MIC
[3] = system: Citrobacter freundii IID 976; assay: In vitro antibacterial activity, MIC (standard strain); type: cell-based; conditions: IID976; Citrobacter freundii IID 976; 10^6 cells/ml; standard strain; read-out: MIC
S. pyogenes 3102 = assay: In vitro antibacterial activity, MIC (clinical isolates); type: cell-based; conditions: Streptococcus pyogenes; S. pyogenes 3102; 10^6 cells/ml; clinical isolate; read-out: MIC
S. agalactiae 4049 = assay: as above; type: cell-based; conditions: Streptococcus agalactiae; S. agalactiae 4049; 10^6 cells/ml; clinical isolate; read-out: MIC
[4] = system: Alcaligenes faecalis 0104002; assay: In vitro antibacterial activity, MIC (standard strain); type: cell-based; conditions: Alcaligenes faecalis, 0104002, Alcaligenes faecalis 0104002; 10^6 cells/ml; standard strain; read-out: MIC
K. pneumoniae 1-220S = assay: as above; type: cell-based; conditions: Klebsiella pneumoniae, 1220S; K. pneumoniae 1-220S; 10^6 cells/ml; standard strain; read-out: MIC
[5] = system: Yersinia enterocolitica IID 981; assay: as above; type: cell-based; conditions: IID981; Yersinia enterocolitica IID 981; 10^6 cells/ml; standard strain; read-out: MIC
S. agalactiae 4342 = assay: In vitro antibacterial activity, MIC (clinical isolates); type: cell-based; conditions: Streptococcus agalactiae; S. agalactiae 4342; 10^6 cells/ml; clinical isolate; read-out: MIC
S. faecalis IID 682 = assay: In vitro antibacterial activity, MIC (standard strain); type: cell-based; conditions: Enterococcus faecalis, IID682; S. faecalis IID 682; 10^6 cells/ml; standard strain; read-out: MIC
[6] = system: Acinetobacter anitratus IID 876; assay: as above; type: cell-based; conditions: Acinetobacter calcoaceticus, IID876, Acinetobacter anitratus IID 876; 10^6 cells/ml; standard strain; read-out: MIC
S. aureus Smith = assay: as above; type: cell-based, Staphylococcus aureus; conditions: Staphylococcus aureus; S. aureus Smith; 10^6 cells/ml; standard strain; read-out: MIC
E. coli ML 4707 = assay: as above; type: cell-based; conditions: Escherichia coli, ML4707; E. coli ML 4707; 10^6 cells/ml; standard strain; read-out: MIC
Shigella sonnei IID 969 = assay: as above; type: cell-based; conditions: IID969, 10^6 cells/ml
Procedure: Experiment-1 In vitro antibacterial activity
The in vitro antibacterial activity against gram-positive and gram-negative bacteria has been investivated.
The minimum inhibitory concentration (MIC) was determined in accordance with the method recommended by Japan Society of Chemotherapy.

S. pyogenes 3107 = assay: In vitro antibacterial activity, MIC (clinical isolates); type: cell-based; conditions: Streptococcus pyogenes; S. pyogenes 3107; 10^6 cells/ml; clinical isolate; read-out: MIC
P. aeruginosa IID 1210 = assay: In vitro antibacterial activity, MIC (standard strain); type: cell-based; conditions: Pseudomonas aeruginosa, IID1210; P. aeruginosa IID 1210; 10^6 cells/ml; standard strain; read-out: MIC
S. marcescens GN 7577 = assay: as above; type: cell-based; conditions: Serratia marcescens, GN7577; S. marcescens GN 7577; 10^6 cells/ml; standard strain; read-out: MIC
C. ramosum = assay: as above; type: cell-based; conditions: Thomasclavelia ramosa; C. ramosum; 10^6 cells/ml; standard strain; read-out: MIC
B. fragilis 0558 = assay: as above; type: cell-based, Bacteroides fragilis; conditions: Bacteroides fragilis, 0558, B. fragilis 0558; 10^6 cells/ml; standard strain; read-out: MIC
E. coli ATCC 10536 = assay: as above; type: cell-based; conditions: Escherichia coli, ATCC10536; E. coli ATCC 10536; 10^6 cells/ml; standard strain; read-out: MIC
S. epidermidis IID 866 = assay: as above; type: cell-based; conditions: Staphylococcus epidermidis, IID866, S. epidermidis IID 866; 10^6 cells/ml; standard strain; read-out: MIC
[7] = system: Bacillus subtilis PCI 219; assay: as above; type: cell-based; conditions: PCI219; Bacillus subtilis PCI 219; 10^6 cells/ml; standard strain; read-out: MIC
[8] = system: Fusobacterium varium KYA 8501; assay: as above; type: cell-based; conditions: Fusobacterium varium, KYA8501, Fusobacterium varium KYA 8501; 10^6 cells/ml; standard strain; read-out: MIC
S. agalactiae 4470 = assay: In vitro antibacterial activity, MIC (clinical isolates); type: cell-based; conditions: Streptococcus agalactiae; S. agalactiae 4470; 10^6 cells/ml; clinical isolate; read-out: MIC
[9] = system: Salmonella entritidis IID 604; assay: In vitro antibacterial activity, MIC (standard strain); type: cell-based; conditions: IID604; Salmonella entritidis IID 604; 10^6 cells/ml; standard strain; read-out: MIC
S. pyogenes 4340 = assay: In vitro antibacterial activity, MIC (clinical isolates); type: cell-based; conditions: Streptococcus pyogenes; S. pyogenes 4340; 10^6 cells/ml; clinical isolate; read-out: MIC
S. pneumoniae 15 = assay: as above; type: cell-based; conditions: Streptococcus pneumoniae; S. pneumoniae 15; 10^6 cells/ml; clinical isolate; read-out: MIC

SMILES: CCNCC1CCN(c2c(F)cc3c(=O)c(C(=O)O)cn(CC)c3c2F)C1 (stereo not drawn) [Ref.1, 1-Ethyl-7-(3-ethylaminomethyl-1-pyrrolidinyl)-6,8-difluoro-1,4-dihydro-4-oxo-3-quinolinecarboxylic acid, reference compound]
- MIC (S. faecalis 49): 0.39 µg/mL (≈ 1.03 µM)
- MIC [1]: 12.5 µg/mL (≈ 32.9 µM)
- MIC [2]: 6.25 µg/mL (≈ 16.5 µM)
- MIC (S. pneumoniae 2054): 0.39 µg/mL (≈ 1.03 µM)
- MIC (S. pyogenes 3130): 0.2 µg/mL (≈ 0.527 µM)
- MIC [3]: 0.2 µg/mL (≈ 0.527 µM)
- MIC (S. pyogenes 3102): 0.2 µg/mL (≈ 0.527 µM)
- MIC (S. agalactiae 4049): 0.39 µg/mL (≈ 1.03 µM)
- MIC [4]: 12.5 µg/mL (≈ 32.9 µM)
- MIC (K. pneumoniae 1-220S): 0.39 µg/mL (≈ 1.03 µM)
- MIC [5]: 0.39 µg/mL (≈ 1.03 µM)
- MIC (S. agalactiae 4342): 0.39 µg/mL (≈ 1.03 µM)
- MIC (S. faecalis IID 682): 0.2 µg/mL (≈ 0.527 µM)
- MIC [6]: 0.78 µg/mL (≈ 2.06 µM)
- MIC (S. aureus Smith): 0.1 µg/mL (≈ 0.264 µM)
- MIC (E. coli ML 4707): 0.1 µg/mL (≈ 0.264 µM)
- MIC (Shigella sonnei IID 969): 0.1 µg/mL (≈ 0.264 µM)
- MIC (S. pyogenes 3107): 0.1 µg/mL (≈ 0.264 µM)
- MIC (P. aeruginosa IID 1210): 12.5 µg/mL (≈ 32.9 µM)
- MIC (S. marcescens GN 7577): 6.25 µg/mL (≈ 16.5 µM)
- MIC (C. ramosum): 6.25 µg/mL (≈ 16.5 µM)
- MIC (B. fragilis 0558): 6.25 µg/mL (≈ 16.5 µM)
- MIC (E. coli ATCC 10536): 0.1 µg/mL (≈ 0.264 µM)
- MIC (S. epidermidis IID 866): 0.1 µg/mL (≈ 0.264 µM)
- MIC [7]: 0.05 µg/mL (≈ 0.132 µM)
- MIC [8]: 6.25 µg/mL (≈ 16.5 µM)
- MIC (S. agalactiae 4470): 0.39 µg/mL (≈ 1.03 µM)
- MIC [9]: 0.39 µg/mL (≈ 1.03 µM)
- MIC (S. pyogenes 4340): 0.2 µg/mL (≈ 0.527 µM)
- MIC (S. pneumoniae 15): 0.2 µg/mL (≈ 0.527 µM)
